How the values were obtained:
TNFα [1] = target: T1, TNFα (Homo sapiens, UniProt P01375); assay: Meso Scale Discovery (MSD) assay of TNFα binding to plate-coated TNFR-ECD; parameters: purchased R&D Systems; conditions: single point, 100 μM, 5% DMSO
Description: 384 well uncoated plates (standard binding) Meso Scale Discovery plates (MSD) were coated overnight with the extracellular domain of TNFR (TNFR-ECD) (10 μl, 1 ug/mL in PBS). To ensure even distribution plates were centrifuged at 1000 rpm for 2 minutes. The plates were then sealed and stored at +4° C. overnight.
The wells of the plates were then washed three times in 50 μl phosphate buffered saline pH 6.5 (PB) with 0.05% Tween 20 (wash buffer), and then blocked with 50 μl 2% BSA. The plates were then incubated at room temperature on a shaker (600 rpm) for 2 hours. After this incubation plates were washed (3×50 μl wash buffer per well). During the blocking incubation, compounds of formulae (3) and (15) were pre-incubated with TNF (R&D Systems) prior to addition to the pre-blocked and washed MSD plates. For a single point assay as shown in FIG. 2A the compounds were assayed at a final concentration of 100 μM (5% final v/v DMSO). […]
The plates were then washed (3×50 μl wash buffer per well), followed by the addition of 50 μl MSD Read buffer T plus surfactant (diluted 1 in 2 in H2O) and read on a SECTOR Imager 6000.
For single point assays percentage inhibition was calculated using a control sample without compound.
For EC50s determination results were calculated by standard means using a 4 parameter logistic model (sigmoidal dose response model).
Target sequence in this assay (P01375 77-233 limits assumed): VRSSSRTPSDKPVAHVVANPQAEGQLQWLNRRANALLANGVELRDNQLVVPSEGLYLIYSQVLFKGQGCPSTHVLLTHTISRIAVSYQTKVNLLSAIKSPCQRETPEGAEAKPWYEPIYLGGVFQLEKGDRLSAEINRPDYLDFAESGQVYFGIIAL
Target sequence in this assay (P19438 30-211 partner limits assumed): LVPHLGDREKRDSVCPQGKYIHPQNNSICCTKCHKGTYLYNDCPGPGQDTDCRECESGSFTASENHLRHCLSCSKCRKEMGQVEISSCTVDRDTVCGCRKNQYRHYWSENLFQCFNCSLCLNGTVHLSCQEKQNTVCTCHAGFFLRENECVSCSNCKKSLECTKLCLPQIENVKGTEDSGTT

TNFR2 = assay: Membrane TNF - TNFR2 signalling (NS0-mTNF cells with expanded primary human T cells); format: cell-based; conditions: compound bound to membrane TNFα on NS0 cells
Description: A murine B cell line (NS0-mTNF) stably expressing non-cleavable human membrane TNF due to a mutation at the TACE cleavage site was used to trigger TNFR2 signalling in PHA-L and IL-2 expanded primary human T cells. […] TNFR1 was also present on these cells but was blocked using a UCB mouse anti-human-TNFR1 antibody 5R16.
NS0-mTNF cells were cultured with 10 μM NCEs for 1 hour to allow binding of Compounds to membrane TNF. T cells were then mixed with the NS0-mTNF cells and following a brief spin to allow cell-cell contact, cells were incubated for 5 min and then lysed in lysis buffer. […] First TRAF-2 recruitment to the TNFR2 receptor was measured in Co-immunoprecipitation experiments as a measure of membrane proximal signalling. After lysis of cells TNFR2 was isolated from the lysate using polyclonal goat anti-human TNFR2 antibodies followed by protein G sepharose bead purification. TNFR2 associated TRAF-2 was then measured in immunoblots after running the purified TNFR2 preparation on a SDS-PAGE. In addition, the whole cell lysate was also sampled for the presence of pNFκB using SDS-PAGE and pNFκB specific immunoblots.
• PBMC from 3 three different donors were cultured in 6 well plates with 10×10^6 cells per well in 5 ml of RPMI1640 supplemented with 10% FCS, 1% human serum, HEPES GlutaMAX, 25 U/ml hIL-2 (Roche) and 2 μg/ml PHA-L (Sigma) to grow out T cells • after 3 days cells were resuspended and cultured in 75 cm^2 flasks with the same media as above, but lacking the PHA-L • growth of culture was monitored and media was changed every 3 days.
This is a 2× solution • prepare 500 μl of 10×10^6 NS0-wt cells • After 1 h add 500 μl human T cells (50×10^6 cells/test) in human media at 37° C. T cells were preincubated for 15 min @37° C. with 50 μg/ml 5R16 anti-TNFR1 Fab-PEG to block signalling via TNFR1 prior adding to the NS0 cells. […]

human TNFα trimer = target: T2, human TNFα trimer (Homo sapiens, UniProt P01375); assay: RMSD of crystal structure of compound-bound TNFα trimer to Reference Structure Compound 34; conditions: Cα atoms of β-sheet residues, all three subunits, PyMOL
T2 construct: His6Smt-tag (N, cleaved yes); made in house; host or cells: E. coli (vector pEMB54)
Description: Cells were pre-cultured at 37° C. in rich media, induced with the addition of 0.1% arabinose and allowed to express overnight at 25° C. in vector pEMB54. This vector introduces a cleavable N-terminal His6Smt-tag. The cells were lysed and purified by Ni-NTA chelate chromatography. The fusion protein was eluted with buffer containing imidazole and cleaved by the addition of protease. The final cleaved TNFα protein was purified by a subtractive Ni chelate chromatography step to remove the fusion tag and further purified by size exclusion chromatography to remove the remaining impurities. The final TNFα product was typically concentrated to 20.0 mg/ml and flash frozen in liquid nitrogen.
Purified human TNF[…] (20.0 mg/ml, VC 2043) was diluted to 4-7 mg/ml in 10 mM HEPES pH 7.5, 150 mM NaCl buffer followed by overnight incubation at 4° C. with 0.3-0.5 mM compound (1-2 molar excess). The TNF[…] compound complexes were crystallized by sitting drop vapor diffusion by mixing 0.5 μl of complex with 0.5 μl of 21.44% PEG 3350, 100 mM Tris, pH 9.0 (UCB1474433); or 22.0% PEG 3350, 100 mM glycine, 100 mM Tris, pH 8.5 (UCB1480595); or 25.6% PEG 3350, 100 mM Tris, pH 8.3, 3% xylitol (UCB5143079) or other formulation with varying precipitant concentration or additives over 100 μl of the same crystallization solution. Other formulations for other compounds include a range of PEG 3350 of 8-28%. Other PEG-like additives include PEG 1000 (8-18%) or PEG 2000 (10-13%). Other additives include MPD (5-13%) or 200 mM NaCl. Other buffers include 100 mM Hepes (pH 7-8), 100 mM Tris or bis-Tris (pH 6.7-9.0). Other non-PEG 3350 crystallization solutions consist of PEG 2000 (14-19%), 100 mM Hepes, pH 8, 25 mM arginine; or 17% PEG 10000, 200 mM ammonium acetate, 100 mM bis-Tris, pH 5.5; or 30% PEG 2000 MME, 100 mM sodium acetate, 100 mM Mes, pH 6.5.
Crystals were briefly soaked in ethylene glycol and/or vitrified directly in liquid nitrogen for data collection.
X-ray diffraction data were collected from a synchrotron source at a wavelength, most frequently, of 0.976484 Å and recorded on CCD detector. […] The structure of the human TNF[…] (VC 2043) complexed with compound was solved by molecular replacement using Phaser with input model of 1TNF. […] Iterative manual model building using Coot (Emsley and Cowtan, 2004) and Refmac (Murshudov et al., 1997) continued until R and Rfree converged. […] The resolution of the structures was most frequently around 2.15 Å.
Root mean squared deviation (RMSD) calculations were carried out to ascertain the distance of each of the crystal structures of distorted TNFα trimer to a reference structure.
RMSD calculations were done using the program PyMOL (www.pymol.org). In this example version 1.7. was used. The cmd.rms PyMOL command was used with defined pairs of atoms. The atoms used were the backbone Ca's of certain residues within the β-strands of TNFα. The residue numbers used are shown below:
These residue numbers are those within the published structure of TNFα with PDB code 1A8M and within the distorted TNFα trimer structures of this invention. The residue numbers are also according to the sequence of SEQ ID NO:36. The residues in each of the three chains with the TNFα structures, (labelled A, B, and C according to our instructions) were used.
The command cmd.rms was used with the following arguments:
rms=cmd.rms(“(moving)”, “(target)”, matchmaker=4, quiet=0, cycles=0)
where “(moving)” is the selection of atoms in a given TNFα structure and “(target)” is the selection of equivalent atoms within the reference structure.
The RMSD was calculated for each structure against all others. The “representative structure” or “Reference Structure” was chosen to be the one with the lowest sum RMSD to all others—the structure “Compound 34” or “Compound34.pdb”.
Reference Structure (Compound 34) and Query Structure (Compound 64) were overlaid (see FIG. 17 with Reference Structure emboldened) by: • 1. […]

TNFα [2] = target: T1, TNFα; assay: Surface plasmon resonance kinetics of compound binding to immobilised TNFα
Description: Surface plasmon resonance was used to measure the association rate, the dissociation rate and the affinity of the compounds of formulae (3) and (15) for TNFα (FIGS. 12A and B). For the purpose of this study a Biacore T100/T200 was used.
TNFα was immobilised at pH5 to a level of 5-8 KRU onto a CMS sensor in HBS-P buffer (10 mM HEPES pH 7.4, 0.15 M NaCl, 0.005% Surfactant P20, BIAcore, GE Healthcare). The TNFα was then equilibrated in HBS-P with 5% DMSO for at least 5 hours. The samples were diluted from 10 mM stocks into DMSO matched buffer and left to solubilise for at least 5 hours. The flow rate was […].
This assay was performed by adding 4 or 5 concentrations of compound starting from a highest concentration of 25 μM for compound of formula (3) and 1 μM for compound of formula (15) and then serially diluting this sample. Background subtraction binding curves were analysed using the BIAevaluation software following standard procedures. Binding, affinity and kinetic parameters were determined using Biacore software. The kinetic data were fitted using the levenberg marquardt algorithm.
Target sequence in this assay (P01375 77-233 limits assumed): as the sequence (P01375 77-233 limits assumed) above

T2 sequence (P01375 with tags, fused parts or gaps): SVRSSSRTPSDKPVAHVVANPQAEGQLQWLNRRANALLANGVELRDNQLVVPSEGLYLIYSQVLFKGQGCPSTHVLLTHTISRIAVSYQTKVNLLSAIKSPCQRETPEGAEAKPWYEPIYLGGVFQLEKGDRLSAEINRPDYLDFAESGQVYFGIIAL

How did the “% inhibition of TNFα binding to the TNF receptor” value (TNFα [1]) turn out when `Cc1cc2occ(CN(C)CCN(C)Cc3cn(-c4cccc(C(F)(F)F)c4)c4ccccc34)c(=O)c2cc1C` [SPD-304] was run?
The value was “+80%”.

Which results are given for `Cc1nc2ccc(-c3ccc(N4CCNCC4)nc3)cn2c1Cc1ccccc1OC(F)F` [Compound 43]?
TNFR2 specific membrane proximal (TRAF-2 recruitment to TNFR2) and downstream (pNFκB) signalling (TNFR2): does not impair; RMSD (Å) with Compound 34 (human TNFα trimer): 0.36 Å

Which “TNFR2 specific membrane proximal (TRAF-2 recruitment to TNFR2) and downstream (pNFκB) signalling” value (TNFR2) does the source give for `O=C1CCCN1c1cccc(OCc2nc3ccc(-c4ccc(=O)[nH]c4)cc3n2Cc2ccccc2OC(F)F)c1` [Compound 39] here?
Its value is “does not impair”.

What about the kon (TNFα [2]) of the same molecule?
Its kon is 5470 M⁻¹ s⁻¹.

What about the “RMSD (Å) with Compound 34” value (human TNFα trimer) of the same molecule?
The value was 0.22 Å.

Which “RMSD (Å) with Compound 34” value (human TNFα trimer) does the source give for `CS(=O)(=O)c1cccc(OCc2nc3ccc(C#N)cc3n2Cc2cc(Cl)ccc2Cl)c1` [Compound 28] here?
The value was 0.29 Å.

From patent US11674967B2, “Method of identifying potential inhibitors of APO TNFα trimers” (UCB BIOPHARMA SRL, priority 2015, dated 2023)
